Here are results for 1 molecule from US12251373B2, “Compounds and methods of treating retinal degeneration” (CASE WESTERN RESERVE UNIVERSITY, priority 2017, dated 2025).

Series [1] has as its system S. typhimurium TA1535, TA97a, TA98, TA100 and E. coli WP2. Briefly: Micro Ames test. The following applies: five bacteria strains, with or without S9. As for the experimental part:
To determine the potential genotoxicity of YC-001, a Micro Ames test was performed by the Charles River Laboratories, Inc. The S9 microsomal fraction was obtained from Moltox Molecular Toxicology, Inc. (Boone, NC, USA). A premixture was prepared including 25 μL of S9 mix (10% v/v S9 fraction in 8 mM MgCl2, 33 mM KCl, 100 mM sodium phosphate buffer, pH 7.4, +S9) or phosphate buffer (0.2 M sodium phosphate, pH 7.4, 0S9), 5 μL of bacterial culture (>1000×10^6 bacteria mL^−1) and 100 μL of molten top agar supplemented with 0.05 mM biotin and minimal histidine (0.05 mM) and minimal tryptophan (0.05 mM). The 24-well plates were prepared by adding 1.3 mL of minimal bottom agar (1.3% agar, Vogel-Bonner medium E and 0.25% glucose) to each well. A 10 μL aliquot of YC-001 working solution/negative/positive control was added to each well followed by addition of 130 μL of the premixture. The plates kept on a leveled surface for 1 h while the top agar solidified, then were incubated at 37° C. for 72 h. After this period, plates were stored at 4° C. before revertant colony counts were manually recorded using an inverted microscope. […]
(In general: The Ames test detects mutagens through reverse mutation in bacteria.)

Series [2] deals with Abca4−/−Rdh8−/− mice. Nature of the series: Bright light-induced retinal degeneration. It is filed as in vivo, mouse. To be noted: 50 or 200 mg kg−1 bw i.p. 30 min before 10,000 lux for 30 min; SD-OCT and HE seven days later. As for the experimental part:
Abca4^−/−Rdh8^−/−42 mice with a 129Sv/Ev or C57BL/6 mixed background were used for light-induced retinal degeneration assays. […] Male and female C57BL/6 mice (Jackson Laboratory, Bar Harbor, ME) at six weeks of age were used to test the effects of YC-001 treatment on the retinoid cycle and bw as well as to determine parenterally administrated YC-001 enter the eyes. YC-001 was dissolved in DMSO at 80-160 mg mL^−1, and the solution was provided to mice by i.p. injection. All mice were housed and maintained in a 12 h light (≤10 lux)/12 h dark cycle in the Animal Resource Center at the School of Medicine, CWRU. […]
Retinal degeneration was initiated by exposing Abca4^−/−Rdh8^−/− mice for 30 min to white light with an intensity of 10,000 lux (150-W spiral lamp, Hampton Bay, Home Depot, Atlanta, GA USA). […] Retinal structures were analyzed by SD-OCT seven days after bright light exposure. […]
To assess the effect of YC-001 treatment on Abca4^−/−Rdh8^−/− mice following bright light-induced retinal degeneration, we performed ultrahigh-resolution SD-OCT (Bioptigen, Morrisville, NC) for in vivo imaging of mouse retinas. […] To measure changes to photoreceptors in the retinas challenged with bright light and assess the effect of YC-001 on retinal protection, the thickness of the ONL was measured along the scanned SD-OCT image at 8 points from the nasal to temporal end of the retina. […]

Molecules are shown by their SMILES.

As to `O=C1OCC(c2ccc(Cl)s2)=C1c1cccs1` [YC-001], the “Ames bacterial mutation test result” value in series [1] is “negative”. In addition, in series [2], the “protection of the ONL from light-induced damage” value was “dose-dependent protection of the ONL”.
